According to PubChem BioAssay AID1259411 (Chemical Carcinogenesis Research Information System (CCRIS), 2018):
The source made the active and inactive calls. How the calls were made is not given here.

Tested on: rodent carcinogenicity bioassays, tumor incidence
Test: CCRIS carcinogenicity studies
Summary of the method: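 Archive of carcinogenicity, mutagenicity, tumor promotion and tumor inhibition results drawn from journals, NCI reports and other sources, expert-reviewed; covers 1985-2011 and is no longer updated.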

## CN(C)CCN(Cc1cccs1)c1ccccn1
Species: RAT, Strain/Sex: F344/FEMALE, Route: ORAL, Dose: 0, 1 G/L IN DEIONIZED DRINKING WATER FOR 12 WK WITH NO TREATMENT DURING WK 5 AND 9 (STUDY DURATION: 121 WK)
  carcinogen call: inactive; negative
Species: RAT, Strain/Sex: F344/FEMALE, Route: ORAL, Dose: 0, 125, 250 MG/KG IN DIET (TOTAL DOSE: 0; 7; 15 MG/KG) FOR 110 WK (STUDY DURATION: 133 WK), Dose: 0, 125, 250 MG/KG IN DIET (TOTAL DOSE: 0; 7; 15 MG/KG) FOR 110 WK (STUDY DURATION: 133 WK), Tumor Site: Type of Lesion: LIVER: CARCINOMA
  carcinogen call: active; positive
Species: RAT, Strain/Sex: F344/MALE,FEMALE, Route: ORAL, Dose: 1000 PPM IN DIET FOR 64 WK (INITIAL DOSES AT 2000 PPM), Tumor Site: Type of Lesion: LIVER: HEPATOCELLULAR CARCINOMA, CHOLANGIOCARCINOMA
  carcinogen call: active; positive
Species: RAT, Strain/Sex: F344/MALE, Route: ORAL, Dose: 0, 125, 250 MG/KG IN DIET (TOTAL DOSE: 0; 7; 14 G/KG) FOR 110 WK (STUDY DURATION: 133 WK), Dose: 0, 125, 250 MG/KG IN DIET (TOTAL DOSE: 0; 7; 14 G/KG) FOR 110 WK (STUDY DURATION: 133 WK), Tumor Site: Type of Lesion: LIVER: CARCINOMA
  carcinogen call: active; positive
Species: RAT, Strain/Sex: SPRAGUE-DAWLEY/FEMALE, Route: ORAL, Dose: 0, 500, 1000 PPM IN DRINKING WATER 5D/WK FOR LIFE (STUDY DURATION: 576-709 D), Dose: 0, 500, 1000 PPM IN DRINKING WATER 5D/WK FOR LIFE (STUDY DURATION: 576-709 D), Tumor Site: Type of Lesion: LIVER: HEPATOCELLULAR CARCINOMA OR SARCOMA
  carcinogen call: active; positive
Species: RAT, Strain/Sex: SPRAGUE-DAWLEY/MALE, Route: ORAL, Dose: 0, 500, 1000 PPM IN DRINKING WATER 5D/WK FOR LIFE (STUDY DURATION: 585-760 D), Dose: 0, 500, 1000 PPM IN DRINKING WATER 5D/WK FOR LIFE (STUDY DURATION: 585-760 D), Tumor Site: Type of Lesion: LIVER: HEPATOCELLULAR CARCINOMA
  carcinogen call: active; positive

## O=[N+]([O-])C1=Cc2cccc3cccc(c23)O1
Species: RAT, Strain/Sex: WISTAR/MALE, Route: SUBCUTANEOUS, Dose: 0, 0.5 MG IN DMSO 1/WK FOR DURATION OF STUDY (TOTAL DOSE: 0; 19.5 MG) (STUDY DURATION: 271 D), Dose: 0, 0.5 MG IN DMSO 1/WK FOR DURATION OF STUDY (TOTAL DOSE: 0; 19.5 MG) (STUDY DURATION: 271 D), Tumor Site: Type of Lesion: INJECTION SITE: FIBROSARCOMA
  carcinogen call: active; positive

## C/C=C/c1cc(OC)c(OC)cc1OC
Species: MOUSE, Strain/Sex: B6C3F1/MALE, Route: INTRAPERITONEAL, Dose: 0, 0.25, 0.5 UMOL/G BW ONCE (STUDY DURATION: 10-11 MONTHS), Dose: 0, 0.25, 0.5 UMOL/G BW ONCE (STUDY DURATION: 10-11 MONTHS), Tumor Site: Type of Lesion: LIVER: HEPATOMA
  carcinogen call: active; positive
Species: MOUSE, Strain/Sex: CD-1/FEMALE, Route: DERMAL, Dose: 0, 5 UMOL 1X/WK FOR 3 WK BEGINNING 24 HR POST FIRST TPA DOSE (2.5 UG IN 0.1 ML ACETONE), FOLLOWED BY 2.5 UG TPA IN 0.1 M
  carcinogen call: inactive; negative

## O=NN1CCNCC1
Species: RAT, Strain/Sex: F344/FEMALE, Route: INTRAVESICAL, Dose: 0, 3.8 G (TOTAL DOSE) INJECTED INTO BLADDER 2/WK OVER 48 WK (STUDY DURATION: 102 WK), Tumor Site: Type of Lesion: NASAL CAVITY: TUMOR, BLADDER: TUMOR
  carcinogen call: active; positive

## N[C@@H](CCC(=O)N[C@@H](CSc1cc(O)c(SC[C@H](NC(=O)CC[C@H](N)C(=O)O)C(=O)NCC(=O)O)c(SC[C@H](NC(=O)CC[C@H](N)C(=O)O)C(=O)NCC(=O)O)c1O)C(=O)NCC(=O)O)C(=O)O
Species: RAT, Strain/Sex: EKER(TSC2 MUTANT)/MALE, Route: INTRAPERITIONEAL, Dose: 0, 2.5 UMOL/KG BW 5 BW 5 D/WK FOR 4 MO FOLLOWED BY 3.5 UMOL/KG BW 5 D/WK FOR 6 MO (STUDY DURATION: 10 MO), Tumor Site: Type of Lesion: KIDNEY: ADENOMA OR CARCINOMA
  carcinogen call: active; positive

## CC(COc1ccccc1)N(CCCl)Cc1ccccc1 (stereo not given)
Species: MOUSE, Strain/Sex: B6C3F1/FEMALE, Route: INTRAPERITONEAL, Dose: 0, 12.5, 25 MG/KG 3/WK FOR 50 OR 52 WK, Dose: 0, 12.5, 25 MG/KG 3/WK FOR 50 OR 52 WK, Tumor Site: Type of Lesion: PERITONEAL CAVITY: SARCOMA
  carcinogen call: active; positive
Species: MOUSE, Strain/Sex: B6C3F1/MALE, Route: INTRAPERITONEAL, Dose: 0, 12.5, 25 MG/KG 3/WK FOR 50 OR 52 WK, Dose: 0, 12.5, 25 MG/KG 3/WK FOR 50 OR 52 WK, Tumor Site: Type of Lesion: PERITONEAL CAVITY: SARCOMA
  carcinogen call: active; positive
Species: MOUSE, Strain/Sex: STRAIN-A/MALE,FEMALE, Route: INTRAPERITONEAL, Dose: 40, 100, 200 MG/KG IN TRICAPRYLIN, Dose: 40, 100, 200 MG/KG IN TRICAPRYLIN, Tumor Site: Type of Lesion: LUNG: ADENOMA
  carcinogen call: active; positive
Species: RAT, Strain/Sex: SPRAGUE-DAWLEY/FEMALE, Route: INTRAPERITONEAL, Dose: 0, 5, 10 MG/KG 3/WK FOR 52 WKS, Dose: 0, 5, 10 MG/KG 3/WK FOR 52 WKS, Tumor Site: Type of Lesion: PERITONEAL CAVITY: SARCOMA
  carcinogen call: active; positive
Species: RAT, Strain/Sex: SPRAGUE-DAWLEY/MALE, Route: INTRAPERITONEAL, Dose: 0, 5, 10 MG/KG 3/WK FOR 52 WK, Dose: 0, 5, 10 MG/KG 3/WK FOR 52 WK, Tumor Site: Type of Lesion: PERITONEAL CAVITY: SARCOMA
  carcinogen call: active; positive

## CCn1c2ccccc2c2ccccc21
Species: MOUSE, Strain/Sex: CD-1/FEMALE, Route: INTRAPERITONEAL, Dose: 0, 1.75 UMOL/MOUSE (TOTAL DOSE) ADMINISTERED DURING DAYS 1, 8, AND 15 OF LIFE (STUDY DURATION: 52 WK)
  carcinogen call: inactive; negative
Species: MOUSE, Strain/Sex: CD-1/MALE, Route: INTRAPERITONEAL, Dose: 0, 1.75 UMOL/MOUSE (TOTAL DOSE) ADMINISTERED DURING DAYS 1, 8, AND 15 OF LIFE (STUDY DURATION: 52 WK)
  carcinogen call: inactive; negative

## CN(C)c1ccc(C(=C2C=CC(=[N+](C)C)C=C2)c2ccccc2)cc1
Species: MOUSE, Strain/Sex: B6C3F1/FEMALE, Route: ORAL (DIET), Dose: 0, 100, 225, 450 PPM IN DIET FOR 2 YRS, Dose: 0, 100, 225, 450 PPM IN DIET FOR 2 YRS
  carcinogen call: inactive; negative
Species: RAT, Strain/Sex: F344/N/FEMALE, Route: ORAL (DIET), Dose: 0, 100, 300, 600 PPM IN DIET FOR 2 YRS, Dose: 0, 100, 300, 600 PPM IN DIET FOR 2 YRS, Tumor Site: Type of Lesion: THYROID: FOLLICULAR CELL ADENOMA OR CARCINOMA, LIVER: HEPATOCELLULAR ADENOMA, MAMMARY GLAND: CARCINOMA, Tumor Site: Type of Lesion: THYROID: FOLLICULAR CELL ADENOMA OR CARCINOMA, LIVER: HEPATOCELLULAR ADENOMA, MAMMARY GLAND: CARCINOMA
  carcinogen call: equivocal; none of the tumor incidences reached statistical significance; in som

## CC(=O)OCN(N=O)c1ccccc1
Species: HAMSTER, Strain/Sex: SYRIAN/FEMALE, Route: SUBCUTANEOUS, Dose: 0, 1.56, 3.13 MG/KG/WK IN OLIVE OIL FOR LIFE (STUDY DURATION: 60 WK), Dose: 0, 1.56, 3.13 MG/KG/WK IN OLIVE OIL FOR LIFE (STUDY DURATION: 60 WK), Tumor Site: Type of Lesion: INJECTION SITE: TUMOR
  carcinogen call: active; positive
Species: HAMSTER, Strain/Sex: SYRIAN/FEMALE, Route: SUBCUTANEOUS, Dose: 0, 6.25, 12.5 MG/KG/WK IN OLIVE OIL FOR 4 WK (STUDY DURATION: 60 WK), Dose: 0, 6.25, 12.5 MG/KG/WK IN OLIVE OIL FOR 4 WK (STUDY DURATION: 60 WK)
  carcinogen call: inactive; negative
Species: HAMSTER, Strain/Sex: SYRIAN/MALE, Route: SUBCUTANEOUS, Dose: 0, 1.56, 3.13 MG/KG/WK IN OLIVE OIL FOR LIFE (STUDY DURATION: 60 WK), Dose: 0, 1.56, 3.13 MG/KG/WK IN OLIVE OIL FOR LIFE (STUDY DURATION: 60 WK)
  carcinogen call: inactive; negative
Species: HAMSTER, Strain/Sex: SYRIAN/MALE, Route: SUBCUTANEOUS, Dose: 0, 6.25, 12.5 MG/KG/WK IN OLIVE OIL FOR 4 WK (STUDY DURATION: 60 WK), Dose: 0, 6.25, 12.5 MG/KG/WK IN OLIVE OIL FOR 4 WK (STUDY DURATION: 60 WK)
  carcinogen call: inactive; negative

## CCCCCCCCCCN(C)N=O
Species: RAT, Strain/Sex: F344/MALE, Route: GAVAGE, Dose: 0, 108 MG/ML IN CORN OIL 2/WK FOR 30 WK, STUDY DURATION: 110 WK, Dose: 0, 108 MG/ML IN CORN OIL 2/WK FOR 30 WK, STUDY DURATION: 110 WK, Tumor Site: Type of Lesion: LUNG: ADENOCARCINOMA, BLADDER
  carcinogen call: active; positive
